Results from ChEMBL document CHEMBL1201862, “PubChem BioAssay data set” (2004).
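Each compound was tested at five concentrations against cells in 96-well plates for 48 hours. GI50: concentration for 50% inhibition of growth.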 Calls of active or inactive are those of the source. Rule as the data show it: active = GI50 up to about 1.1 µM and inactive = higher.

What was measured:
Test in all cases: NCI tumour cell line growth inhibition, 48 h
COLO 205 = tested on: COLO 205
DLD-1 = tested on: DLD-1
DMS-114 = tested on: DMS-114
HOP-92 = tested on: HOP-92
IGROV-1 = tested on: IGROV-1
KM-20L2 = tested on: KM-20L2
M14 = tested on: M14
Malme-3M = tested on: Malme-3M
NCI-H23 = tested on: NCI-H23
786-0 = tested on: 786-0
BT-549 = tested on: BT-549
HL-60 = tested on: HL-60
MCF7 = tested on: MCF7
MDA-MB-231 = tested on: MDA-MB-231
MDA-MB-435 = tested on: MDA-MB-435
NCI/ADR-RES = tested on: NCI/ADR-RES
PC-3 = tested on: PC-3
T47D = tested on: T47D
MDA-N = tested on: MDA-N
SNB-78 = tested on: SNB-78

Measured: GI50

CN1C(=O)CN2C(Cl)(Cl)C2(c2ccccc2)c2cc(Cl)ccc21 (stereo not drawn)
inactive: COLO 205 > 100 µM | DLD-1 93.5 µM | DMS-114 > 100 µM | HOP-92 13.5 µM | IGROV-1 > 100 µM | KM-20L2 > 100 µM | M14 > 100 µM | Malme-3M > 100 µM | NCI-H23 89.1 µM

CC1=NN(C(=O)c2ccc(Cl)cc2)C(=O)C1/N=N/c1ccc(S(=O)(=O)Nc2ncccn2)cc1 (stereo not drawn)
inactive: 786-0 > 100 µM | BT-549 > 100 µM | COLO 205 > 100 µM | HL-60 > 100 µM | IGROV-1 > 100 µM | M14 > 100 µM | MCF7 > 100 µM | MDA-MB-231 > 100 µM | MDA-MB-435 > 100 µM | Malme-3M > 100 µM | NCI-H23 > 100 µM | NCI/ADR-RES > 100 µM | T47D > 100 µM
active: HOP-92 < 0.01 µM | PC-3 0.217 µM

C=Cc1cc2c(cc1O)CC[C@@H]1[C@@H]2CC[C@]2(C)[C@@H](O)CC[C@@H]12
active: MDA-MB-435 1.09 µM
inactive: 786-0 4.13 µM | COLO 205 15.4 µM | HL-60 2.67 µM | IGROV-1 8.09 µM | M14 5.4 µM | MDA-MB-231 5.33 µM | MDA-N 1.45 µM | Malme-3M 2.18 µM | NCI-H23 3.18 µM | NCI/ADR-RES 1.77 µM | PC-3 11.6 µM | T47D 8.79 µM

S=c1nc(Nc2ccc(Br)cc2)c2c3c(sc2[nH]1)CN(N1CCc2c(sc4[nH]c(=S)nc(Nc5ccc(Br)cc5)c24)C1)CC3
inactive: 786-0 8.13 µM | BT-549 > 50 µM | COLO 205 23.6 µM | HL-60 17.6 µM | IGROV-1 26.2 µM | M14 8.36 µM | MCF7 20.3 µM | MDA-MB-231 17.9 µM | MDA-MB-435 15.2 µM | MDA-N 12.6 µM | Malme-3M 44.1 µM | NCI-H23 24 µM | NCI/ADR-RES > 50 µM | PC-3 38.8 µM | T47D 8.79 µM

Cc1c(N2C(=O)CS(=O)(=O)C2c2cccc(Oc3ccccc3)c2)c(=O)n(-c2ccccc2)n1C (stereo not drawn)
inactive: BT-549 29.5 µM | COLO 205 28 µM | HL-60 14.1 µM | HOP-92 44.2 µM | IGROV-1 46.9 µM | M14 23.7 µM | MCF7 36.9 µM | MDA-MB-231 > 100 µM | MDA-MB-435 36.9 µM | MDA-N 24.8 µM | NCI-H23 > 100 µM | NCI/ADR-RES 61.2 µM | PC-3 43.3 µM | T47D 29 µM
active: Malme-3M 0.512 µM

O=C(c1ccc(Cl)cc1)N(C(=O)N1CCC(c2ccccc2)CC1)c1ccccc1
inactive: 786-0 70.3 µM | BT-549 19.5 µM | COLO 205 33 µM | HL-60 17.1 µM | IGROV-1 17.9 µM | M14 18.4 µM | MCF7 39.4 µM | MDA-MB-231 26.1 µM | MDA-MB-435 25.8 µM | MDA-N 39.3 µM | Malme-3M 10.4 µM | NCI-H23 23.9 µM | NCI/ADR-RES 16.6 µM | PC-3 6.4 µM | T47D 11.1 µM

O=c1cnn(CCOCP(=O)(O)O)c(=O)[nH]1
inactive: BT-549 > 100 µM | COLO 205 > 100 µM | HOP-92 > 100 µM | IGROV-1 > 100 µM | M14 > 100 µM | MCF7 > 100 µM | MDA-MB-231 > 100 µM | MDA-MB-435 > 100 µM | MDA-N > 100 µM | Malme-3M > 100 µM | NCI-H23 > 100 µM | NCI/ADR-RES > 100 µM | PC-3 > 100 µM | T47D > 100 µM

CN(C)c1ccc(/C=N/c2ccc(Oc3ccc(Cl)cc3)c(Cl)c2)cc1
inactive: BT-549 16.6 µM | COLO 205 22.1 µM | HL-60 11.7 µM | HOP-92 18.2 µM | IGROV-1 21.7 µM | M14 28.1 µM | MCF7 42.7 µM | MDA-MB-231 16.5 µM | MDA-MB-435 24.2 µM | MDA-N 21.7 µM | Malme-3M 15.3 µM | NCI-H23 19 µM | NCI/ADR-RES 16.2 µM | PC-3 15.2 µM | T47D 16.8 µM

CCN(CC)CCNCc1cc(Cl)cc2c1OCOC2
inactive: COLO 205 > 10 µM | HL-60 > 10 µM | IGROV-1 > 10 µM | M14 > 10 µM | MCF7 > 10 µM | MDA-MB-231 > 10 µM | MDA-MB-435 > 10 µM | MDA-N > 10 µM | Malme-3M > 10 µM | NCI-H23 > 10 µM | NCI/ADR-RES > 10 µM | PC-3 > 10 µM | T47D > 10 µM

COc1ccc2[nH]c(Cl)c(/C=C3/C(=O)Nc4cc(C)c(OC)cc43)c2c1
inactive: 786-0 5.68 µM | BT-549 3.2 µM | COLO 205 2.02 µM | HL-60 1.91 µM | HOP-92 11.7 µM | IGROV-1 4.31 µM | M14 3.98 µM | MCF7 3.8 µM | MDA-MB-231 3.81 µM | MDA-MB-435 1.23 µM | MDA-N 1.58 µM | Malme-3M 5.82 µM | NCI-H23 5.11 µM | NCI/ADR-RES 2.44 µM | PC-3 3.33 µM | T47D 5.96 µM

COC(=O)c1cc(C)ccc1CC(Cc1cccc(C)c1)C(=O)OC (stereo not drawn)
inactive: 786-0 > 100 µM | BT-549 > 100 µM | COLO 205 > 100 µM | HL-60 34.7 µM | HOP-92 25.8 µM | IGROV-1 > 100 µM | M14 > 100 µM | MCF7 > 100 µM | MDA-MB-231 > 100 µM | MDA-MB-435 > 100 µM | MDA-N > 100 µM | Malme-3M > 100 µM | NCI-H23 38.5 µM | NCI/ADR-RES 95.9 µM | PC-3 > 100 µM | T47D > 100 µM

Cc1nc(Nc2nc3ccccc3[nH]2)[nH]c(=O)c1CCO
inactive: 786-0 65.6 µM | BT-549 > 100 µM | COLO 205 > 59.8 µM | HL-60 75.9 µM | HOP-92 55.3 µM | IGROV-1 12.3 µM | M14 27.2 µM | MCF7 > 100 µM | MDA-MB-231 27.4 µM | MDA-MB-435 > 100 µM | MDA-N > 92 µM | Malme-3M 25.6 µM | NCI-H23 98.6 µM | NCI/ADR-RES > 100 µM | PC-3 > 100 µM | T47D 7.6 µM

COc1c(Cl)ccc(Cl)c1C(=O)NNC(=O)c1c(Cl)c(Cl)c(Cl)c(Cl)c1-c1nc2cc(C(=O)c3ccccc3)ccc2[nH]1
inactive: 786-0 72.4 µM | BT-549 67.3 µM | COLO 205 47.4 µM | HL-60 50.5 µM | HOP-92 52.6 µM | IGROV-1 31 µM | M14 52.6 µM | MCF7 44.4 µM | MDA-MB-231 37.6 µM | MDA-MB-435 42.9 µM | MDA-N 33.3 µM | Malme-3M 54.3 µM | NCI-H23 64.1 µM | NCI/ADR-RES > 100 µM | PC-3 37.8 µM | T47D 15.5 µM

Cc1cc(C)c2c(n1)S(=O)(=O)N(CCCN1CCN(c3cccc(C(F)(F)F)c3)CC1)C(C(=O)c1ccccc1)=C2O
inactive: 786-0 4.48 µM | BT-549 16 µM | COLO 205 3.31 µM | HL-60 2.61 µM | HOP-92 5.19 µM | IGROV-1 5.66 µM | M14 7.36 µM | MCF7 7.13 µM | MDA-MB-231 20.3 µM | MDA-MB-435 6.11 µM | MDA-N 5.5 µM | Malme-3M 18.4 µM | NCI-H23 5.06 µM | NCI/ADR-RES 3.21 µM | PC-3 9.82 µM | T47D 13.1 µM

OCc1nnn2c1CCC2
inactive: DLD-1 > 100 µM | HL-60 > 100 µM | HOP-92 > 100 µM | IGROV-1 > 100 µM | KM-20L2 > 100 µM | M14 > 100 µM | Malme-3M > 100 µM | NCI-H23 > 100 µM | SNB-78 > 100 µM

CCCO[C@@H]1[C@@H](OC(C)=O)[C@@H](OC(C)=O)C(C)(C)/C=C/[C@H](C)C(=O)[C@@]2(OC(C)=O)C[C@@](C)(OC(C)=O)[C@H](OC(C)=O)[C@@H]2[C@H]2OC(=O)CC[C@@]12OC(=O)c1ccccc1
inactive: BT-549 22.9 µM | COLO 205 6.97 µM | HL-60 2.64 µM | HOP-92 > 25 µM | IGROV-1 > 25 µM | M14 > 25 µM | MCF7 23.6 µM | MDA-MB-231 > 25 µM | MDA-MB-435 15.2 µM | MDA-N 14.9 µM | Malme-3M 17.5 µM | NCI-H23 > 25 µM | NCI/ADR-RES > 25 µM | PC-3 20.4 µM | T47D > 25 µM

CO/N=C1/c2sccc2[C@H](NC(=O)CNC(=O)OC(C)(C)C)[C@@H]1O
inactive: BT-549 > 100 µM | COLO 205 > 100 µM | HL-60 > 100 µM | HOP-92 > 100 µM | IGROV-1 > 100 µM | M14 > 100 µM | MCF7 > 100 µM | MDA-MB-231 > 100 µM | MDA-MB-435 > 100 µM | MDA-N > 100 µM | Malme-3M > 100 µM | NCI-H23 > 100 µM | NCI/ADR-RES > 100 µM | PC-3 > 100 µM | T47D > 100 µM

C1#Cc2ccccc2OCCOc2ccccc2C#Cc2ccccc2OCCOc2ccccc21
inactive: 786-0 10.3 µM | BT-549 16.6 µM | COLO 205 30.1 µM | HL-60 61.2 µM | IGROV-1 15.6 µM | M14 30.8 µM | MCF7 > 100 µM | MDA-MB-231 17.7 µM | MDA-MB-435 > 100 µM | MDA-N > 100 µM | Malme-3M 28.1 µM | NCI-H23 16.9 µM | NCI/ADR-RES 29.4 µM | PC-3 52 µM | T47D 49.5 µM
